Consider one compound from patent US11155576B2, “Synthetic peptides, enzymatic formation of pericellular hydrogels/nanofibrils, and methods of use” (BRANDEIS UNIVERSITY, priority 2014, dated 2021).

The test system of series [1] is HeLa cells. The series can be described thus: Cell adhesion assay. The class given is cell-based, human. The settings on record: 560 μM, trypsinized HeLa cells, at 4 hours. The method, then:
Cells in exponential growth phase were detached using 0.25% trypsin-EDTA. After neutralizing trypsin by addition of complete culture medium, the cells were collected by centrifuge (1000 rpm, 3 min). The cell pellet was suspended by addition of culture medium to a concentration of 4×10^5 cells/mL. 1 mL of the cell suspension was mixed with 1 mL of 2×D-2a or D-2b containing culture media. The resulting solutions were added into 96 well plate at 100 μL/well. After the desired time of incubation at 37° C., 5% CO2, the solution was gently removed, and then 100 μL of culture medium and 10 μL of 5 mg/mL MTT were added to each well. Following 4 hour incubation in the dark, 100 μL of 10% SDS with 0.01M HCl was added to each well to stop the reduction reaction and to dissolve the purple. After incubation of the cells at 37° C. for overnight, the viability was measured. Data represent the mean±standard deviation of three independent experiments.

The test system of series [2] is active PARP. The series can be described thus: Apoptosis pathway assay (ELISA), active PARP. The class given is cell-based, human. Conditions: HeLa cells, 280 μM, at 24 and 32 hours of incubation. As to the method:
The apoptosis pathway was evaluated using the PathScan® Apoptosis Multi-Target Sandwich ELISA Kit (Cell Signaling Technology) following the supplied protocol. Cells in exponential growth phase were seeded in a 6 cm Petri dish at a concentration of 10×10^5 cells/dish (5 dishes). Cells were allowed to attach to the wells for 24 hours at 37° C., 5% CO2. The culture medium was removed and 5 mL medium containing 280 μM D-2a (immediately diluted from fresh prepared stock solution of 11.2 mM) was placed into each dish. At 0, 6, 12, 24, or 32 hours, the medium was removed and cells were washed three times with cold PBS buffer. 0.9 mL lysis buffer was used to lyse cells in each dish, and 0.9 mL of diluents buffer was used to dilute each of the cell lysate. The lysate was incubated in the provided 96 well plate at 4° C. for 24 hours.
ELISA was used to quantify the amount of several key apoptosis signal molecules over time in the HeLa cells incubated with 280 μM D-2a (FIG. 3E).

The test system of series [3] is HeLa cells. The series can be described thus: Viability of cells after cold shock and nanonet collection. Type of series: cell-based, human. The settings on record: 4 hour incubation with D-2a in FBS-free MEM, cold shock and medium removal. The method, then:
FIGS. 33A-33B show the cell compatibility of the use of nanonets/hydrogel for collecting cancer secretome. FIG. 33A is a Western blot showing the amount of tubulins in CM collected after 24 hours of incubation or pericellular nanonets collected after 3 to 9 hours of incubation. […] Both CM and nanonets were collected in FBS-free MEM. […] Two trials, each has three repeats.
In another experiment the viability of cells following nanonet collection was evaluated following 4 hour incubation with D-2a and cold shock.

The test system of series [4] is Ect1/E6E7 cells. The series can be described thus: Pericellular hydrogelation on Ect1/E6E7 cells. The class given is cell-based, human. Conditions: 560 μM, prolonged incubation time of 48 hours. As to the method: An 11.2 mM (8.09 mg/mL) stock solution of D-2a was prepared in ddH2O. The pH was adjusted to 7.4 using 1N NaOH. 2×10^5 cells in exponential growth phase were seeded in 35 mm Petri dish with 1 mL complete culture medium. Following overnight incubation, the medium was replaced with 1 mL of medium containing D-2a (diluted from the stock solution immediately prior to use). Petri dishes were incubated at 37° C. for two hours. Next, dishes were removed from the incubator and titled on a bench to visualize the pericellular hydrogel. Prior to co-incubation with phosphatase inhibitors, cells were washed three times with medium containing Pierce phosphatase inhibitor cocktail (Thermo) (contains sodium floride, sodium orthovanadate, sodium pyrophosphate, and beta-glycerophosphate). Next, 1 mL of medium containing both the inhibitor cocktail and D-2a was applied to the cells.
Ect1/E6E7 cells (immortalized normal human cervical epithelial cells, which have same tissue and organ origins as HeLa cells) were treated with the same procedure as described for HeLa cells above. […] The difference of hydrogel/nanonets formation by D-2a conversion to D-2b on HeLa cells and Ect1/E6E7 cells agrees with the notion that HeLa cells have higher levels of phosphatase activity than Ect1/E6E7 cells (FIG. 9).

The subject of series [5] is HeLa cells. The series can be described thus: Cell migration (wound healing) assay. Type of series: cell-based, human. The settings on record: 18 hours. The method, then: Cell migration was evaluated using the wound healing assay with the CytoSelect™ Wound Healing Assay Kit (Cell Biolabs, Inc). Wound healing inserts with width at 0.9 mm were placed into 24-well plates. 0.8 mL of HeLa cells at 2×10^5 cells/mL were added to either side of the insert and incubated overnight to form a confluent layer. Inserts were then carefully removed to expose the gap. After removing the culture medium, new medium containing the molecules was added to cells. The cells were next incubated at 37° C., 5% CO2 for 18 hours. Images of gaps before and after the addition of the molecules were captured using a microscope at a magnification of ×40. Cell migration was quantified by measuring the change in gap distance.

Series [6] relates to HeLa cells. The series can be described thus: Negative stained TEM of pericellular hydrogel on HeLa cells. Type of series: physicochemical, human. Conditions: HeLa cells treated with 280 μM D-2a. The method, then: Carbon coated copper grids were glow-discharged to increase their hydrophilicity prior to use. Pericellular hydrogel/nanofibrils were obtained by incubating D-2a at 280 μM with HeLa cells for 2 hours. Cell culture medium was removed in order to expose the pericellular hydrogel. The carbon coated side of the grid was gently pressed onto the pericellular hydrogel for 1 second. Next, the sample-loaded surface was washed using a drop of ddH2O. To remove excess water from the grid, the edge of the grid was immediately tilted and blotted three times against a filter paper. The grid was stained by letting the grid touch a drop of 2.0% (w/v) uranyl acetate with the sample-loaded surface. Excessive stain solution was removed by gently touching the grid with a drop of ddH2O. The grid was then dried by touching the edge of the grid with a filter paper for 3 times. The grid was air dried for a few minutes and examined immediately.
That is, the nanofibrils form nanonets. Similar to the nanofibrils of D-2b formed by the addition of ALP into the solution of D-2a in PBS buffer (FIG. 7), these cell-surface nanofibrils entangle with each other to form the matrices of the hydrogel.

The test system of series [7] is MES-SA/dx5 cells. The series can be described thus: Cell viability assay (MTT), MES-SA/dx5. The class given is cell-based, human. The settings on record: 280 μM; multi-drug resistant cells. As to the method: Cells in exponential growth phase were seeded in a 96 well plate at a concentration of 2×10^4 cells/well. The cells were allowed to attach to the wells for 24 hours at 37° C., 5% CO2. The culture medium was removed and 100 μL culture medium containing compounds (immediately diluted from fresh prepared stock solution of 10 mM) at gradient concentrations (0 μM as the control) was placed into each well. After culturing at 37° C., 5% CO2 for 48 hours, each well was added by 10 μL of 5 mg/mL MTT (3-(4,5-dimethylthiazoL-2-yl)-2,5-diphenyltetrazolium bromide), and the plated cells were incubated in the dark for 4 hours. 100 μL 10% SDS with 0.01M HCl was added to each well to stop the reduction reaction and to dissolve the purple. After overnight incubation of the cells at 37° C., the OD at 595 nm of the solution was measured in a microplate reader. Data represent the mean±standard deviation of three independent experiments.

On to `O=C(Cc1ccc2ccccc2c1)N[C@H](Cc1ccccc1)C(=O)N[C@H](Cc1ccccc1)C(=O)N[C@H](Cc1ccc(OP(=O)(O)O)cc1)C(=O)O` [D-2a, Nap-D-Phe-D-Phe-D-Tyr(PO3H2)], for which the “Cells reattached to surface” value in series [1] is listed as “less than 5%”. For the same compound, the “Amount of active PARP” value in series [2] was “increase significantly”. Also, in series [3], the “Cell viability after nanonet collection” value was “hardly affected cell viability”. In addition, in series [4], the “Hydrogel formation on Ect1/E6E7 cells” value is reported as “hydrogels hardly form”. Besides, the “Cell migration (gap)” value in series [5] (280 μM) and in series [5] (560 μM) was “gaps larger than those of untreated cells” throughout. The “Diameter of nanofibrils of the pericellular hydrogel” value in series [6] is recorded as “about 20 nm”. In addition, in series [7], the Growth inhibition result is on record as “inhibits the growth”.
